Measured values from patent US5202315A, “Cephalosporin compounds” (Lucky, Ltd., priority 1989, dated 1993).
Converted amounts (≈) assume the structure as drawn. Read-outs that look alike come from different tables or passages of the source.

How the values were obtained:
[1] = In-vivo absorbency (plasma concentrations & pharmacokinetic parameters); set-up: species or system SD rat (male); settings: plasma, SD male rat, iv 20 mg/kg; for half-life: rat, iv, 20 mg/kg
Text: The blood samples from the femoral vein of the rats were taken every hour after administration, and analyzed by bio-assay(agar well method).
Tested animal: SD male Rat (220~340 g)

[2] = tested on: Shigella sonnei ATCC 11060; test: Antibacterial activity, MIC; type: cell-based; settings: ATCC11060, ATCC 11060, agar two-fold dilution, 37° C., 20 hours, read-out: MIC
Procedure, shortened: (§1)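 Incubation at 37 °C for 20 h followed inoculation of 2 μl standard strain (10^7 CFU/ml) onto agar carrying the compound. Compound was incorporated into Mueller-Hinton agar as two-fold serial dilutions.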

[3] = tested on: Enterobacter cloacae ATCC 27508; test: Antibacterial activity, MIC; type: cell-based; settings: ATCC27508, ATCC 27508, agar two-fold dilution, 37° C., 20 hours, read-out: MIC
Procedure, shortened: as §1

[4] = tested on: Staphylococcus aureus ATCC 10537; test: Antibacterial activity, MIC; type: cell-based; settings: ATCC10537, ATCC 10537, agar two-fold dilution, 37° C., 20 hours, read-out: MIC
Procedure, shortened: as §1

[5] = tested on: Salmonella typhimurium ATCC 14028; test: Antibacterial activity, MIC; type: cell-based; settings: Salmonella enterica; ATCC 14028; agar two-fold dilution, 37° C., 20 hours; read-out: MIC
Procedure, shortened: as §1

[6] = tested on: Pseudomonas aeruginosa ATCC 10145; test: Antibacterial activity, MIC; type: cell-based; settings: ATCC10145, ATCC 10145, agar two-fold dilution, 37° C., 20 hours, read-out: MIC
Procedure, shortened: as §1

[7] = tested on: Acinetobacter calcoaceticus ATCC 15473; test: Antibacterial activity, MIC; type: cell-based; settings: ATCC15473, ATCC 15473, agar two-fold dilution, 37° C., 20 hours, read-out: MIC
Procedure, shortened: as §1

[8] = tested on: Providencia rettgeri ATCC 9250; test: Antibacterial activity, MIC; type: cell-based; settings: ATCC9250, agar two-fold dilution, 37° C., 20 hours
Procedure, shortened: as §1

[9] = tested on: Serratia marcescens ATCC 27117; test: Antibacterial activity, MIC; type: cell-based; settings: ATCC27117, ATCC 27117, agar two-fold dilution, 37° C., 20 hours, read-out: MIC
Procedure, shortened: as §1

[10] = tested on: Micrococcus luteus ATCC 9341; test: Antibacterial activity, MIC; type: cell-based; settings: ATCC9341, ATCC 9341, agar two-fold dilution, 37° C., 20 hours, read-out: MIC
Procedure, shortened: as §1

[11] = tested on: Pseudomonas aeruginosa ATCC 25619; test: Antibacterial activity, MIC; type: cell-based; settings: ATCC25619, ATCC 25619, agar two-fold dilution, 37° C., 20 hours, read-out: MIC
Procedure, shortened: as §1

[12] = tested on: Staphylococcus aureus ATCC 6538p; test: Antibacterial activity, MIC; type: cell-based; settings: ATCC6538P, ATCC 6538p, agar two-fold dilution, 37° C., 20 hours, read-out: MIC
Procedure, shortened: as §1

[13] = tested on: Bacillus megaterium ATCC 9885; test: Antibacterial activity, MIC; type: cell-based; settings: Priestia megaterium, ATCC9885; ATCC 9885; agar two-fold dilution, 37° C., 20 hours; read-out: MIC
Procedure, shortened: as §1

[14] = tested on: Escherichia coli ATCC 10536; test: Antibacterial activity, MIC; type: cell-based; settings: ATCC10536, agar two-fold dilution, 37° C., 20 hours
Procedure, shortened: as §1

[15] = tested on: Shigella flexneri ATCC 11836; test: Antibacterial activity, MIC; type: cell-based; settings: ATCC11836, agar two-fold dilution, 37° C., 20 hours
Procedure, shortened: as §1

[16] = tested on: Bacillus cereus ATCC 11778; test: Antibacterial activity, MIC; type: cell-based; settings: ATCC11778, ATCC 11778, agar two-fold dilution, 37° C., 20 hours, read-out: MIC
Procedure, shortened: as §1

[17] = tested on: Klebsiella pneumoniae ATCC 10031; test: Antibacterial activity, MIC; type: cell-based; settings: ATCC10031, ATCC 10031, agar two-fold dilution, 37° C., 20 hours, read-out: MIC
Procedure, shortened: as §1

[18] = tested on: Proteus vulgaris ATCC 6059; test: Antibacterial activity, MIC; type: cell-based; settings: ATCC6059, ATCC 6059, agar two-fold dilution, 37° C., 20 hours, read-out: MIC
Procedure, shortened: as §1

[19] = tested on: Citrobacter freundii ATCC 8090; test: Antibacterial activity, MIC; type: cell-based; settings: ATCC8090, ATCC 8090, agar two-fold dilution, 37° C., 20 hours, read-out: MIC
Procedure, shortened: as §1

[20] = tested on: Pseudomonas aeruginosa ATCC 27853; test: Antibacterial activity, MIC; type: cell-based; settings: ATCC27853, ATCC 27853, agar two-fold dilution, 37° C., 20 hours, read-out: MIC
Procedure, shortened: as §1

[21] = tested on: Proteus mirabilis ATCC 25933; test: Antibacterial activity, MIC; type: cell-based; settings: ATCC25933, ATCC 25933, agar two-fold dilution, 37° C., 20 hours, read-out: MIC
Procedure, shortened: as §1

[22] = tested on: Staphylococcus epidermidis ATCC 12228; test: Antibacterial activity, MIC; type: cell-based; settings: ATCC12228, ATCC 12228, agar two-fold dilution, 37° C., 20 hours, read-out: MIC
Procedure, shortened: as §1

[23] = tested on: Morganella morganii ATCC 8076h; test: Antibacterial activity, MIC; type: cell-based; settings: ATCC8076H, agar two-fold dilution, 37° C., 20 hours
Procedure, shortened: as §1

[24] = tested on: Enterobacter aerogenes ATCC 29751; test: Antibacterial activity, MIC; type: cell-based; settings: Klebsiella aerogenes, ATCC29751; ATCC 29751; agar two-fold dilution, 37° C., 20 hours; read-out: MIC
Procedure, shortened: as §1

[25] = tested on: Escherichia coli ATCC 25922; test: Antibacterial activity, MIC; type: cell-based; settings: ATCC25922, agar two-fold dilution, 37° C., 20 hours
Procedure, shortened: as §1

[26] = tested on: Streptococcus faecalis ATCC 29212; test: Antibacterial activity, MIC; type: cell-based; settings: Enterococcus faecalis, ATCC29212; ATCC 29212; agar two-fold dilution, 37° C., 20 hours; read-out: MIC
Procedure, shortened: as §1

[27] = In-vivo absorbency (plasma concentrations & pharmacokinetic parameters); set-up: species or system SD rat (male); settings: plasma, SD male rat, iv 20 mg/kg, read-out: Plasma Conc.
Pseudomonas = test: Antibacterial activity; type: cell-based; settings: statement in words

## CC(C)(O/N=C(\C(=O)NC1C(=O)N2C(C(=O)[O-])=C(CSc3nc(N)cc(N)[n+]3N)CS[C@H]12)c1csc(N)n1)C(=O)O (stereo partly shown) [Compound I-15, 7-[(Z)-2-(2-aminothiazol-4-yl)-2-(2-carboxyprop-2-oxyimino)acetamido]-3-(1,4,6-triaminopyrimidinium-2-yl) thiomethyl-3-cephem-4-carboxylate]
[1]; 60 min, read-out: Plasma Conc.
  concentration at 1 h: 2400 ng/mL
[1]; 120 min, read-out: Plasma Conc.
  concentration at 2 h: 600 ng/mL
[1]; two compartment model
  AUC: 43400 ng·h/mL
[1]; two compartment model, read-out: T1/2 (α)
  half-life: 3 min
[1]; two compartment model, read-out: T1/2 (β)
  half-life: 29 min
[2]
  MIC: 0.063 µg/mL (≈ 0.101 µM)
[3]
  MIC: 0.016 µg/mL (≈ 0.0256 µM)
[4]
  MIC: 2 µg/mL (≈ 3.2 µM)
[5]
  MIC: 0.13 µg/mL (≈ 0.208 µM)
[6]
  MIC: 1 µg/mL (≈ 1.6 µM)
[7]
  MIC: 2 µg/mL (≈ 3.2 µM)
[8]
  MIC: ≤ 0.008 µg/mL
[9]
  MIC: 0.063 µg/mL (≈ 0.101 µM)
[10]
  MIC: 0.25 µg/mL (≈ 0.4 µM)
[11]
  MIC: 1 µg/mL (≈ 1.6 µM)
[12]
  MIC: 4 µg/mL (≈ 6.4 µM)
[13]
  MIC: 0.5 µg/mL (≈ 0.8 µM)
[14]
  MIC: 0.063 µg/mL (≈ 0.101 µM)
[15]
  MIC: 0.031 µg/mL (≈ 0.0496 µM)
[16]
  MIC: 64 µg/mL (≈ 102 µM)
[17]
  MIC: 0.063 µg/mL (≈ 0.101 µM)
[18]
  MIC: 0.016 µg/mL (≈ 0.0256 µM)
[19]
  MIC: 0.063 µg/mL (≈ 0.101 µM)
[20]
  MIC: 1 µg/mL (≈ 1.6 µM)
[21]
  MIC: 0.016 µg/mL (≈ 0.0256 µM)
[22]
  MIC: 2 µg/mL (≈ 3.2 µM)
[23]
  MIC: ≤ 0.008 µg/mL
[24]
  MIC: 1 µg/mL (≈ 1.6 µM)
[25]
  MIC: 0.063 µg/mL (≈ 0.101 µM)
[26]
  MIC: > 128 µg/mL
[27]; 1 min
  concentration at 1 min: 148000 ng/mL
[27]; 2.5 min
  concentration at 2.5 min: 104000 ng/mL
[27]; 5 min
  concentration at 5 min: 71000 ng/mL
[27]; 10 min
  concentration at 10 min: 53000 ng/mL
[27]; 20 min
  concentration at 20 min: 22000 ng/mL
[27]; 40 min
  concentration at 40 min: 10000 ng/mL
Pseudomonas
  antibacterial activities, especially against Pseudomonas: excellent
